This is an account of results in patent publication US20090239846A1, “Novel Compounds” (Glaxo Group Limited, priority 2005, published 2009).

In data set [1] the target is T1, Recombinant human p38α (Homo sapiens, UniProt Q16539).
T1 construct: GST; made in house
The experiment in a line: Time-resolved fluorescence resonance energy transfer (TR-FRET) kinase assay (standard or low volume). In kind it is biochemical. As for the experimental part:
[…] To activate this protein, 3 μM unactivated p38α was incubated in 200 mM Hepes pH 7.4, 625 mM NaCl, 1 mM DTT with 27 nM active MKK6 (Upstate), 1 mM ATP and 10 mM MgCl2 The activity of the MKK6-activated p38α was assessed using a time-resolved fluorescence resonance energy transfer (TR-FRET) assay. Biotinylated-GST-ATF2 (residues 19-96, 400 nM final), ATP ([…]) and MgCl2 (5 mM final) in assay buffer (40 mM HEPES pH 7.4, 1 mM DTT) were added to wells containing 1 ul of various concentrations of compound or DMSO vehicle (3% final) in NUNC 384 well black plate. The reaction was initiated by the addition of MKK6-activated p38 (100 pM final) to give a total volume of 30 ul. The reaction was incubated for 120 minutes at room temperature, then terminated by the addition of 15 μl of 100 mM EDTA pH 7.4. Detection reagent (15 μl) in buffer (100 mM HEPES pH 7.4, 150 mM NaCl, 0.1% w/v BSA, 1 mM DTT) containing antiphosphothreonine-ATF2-71 polyclonal antibody (Cell Signalling Technology, Beverly Mass., USA) labelled with W-1024 europium chelate (Wallac OY, Turku, Finland), and APC-labelled streptavidin (Prozyme, San Leandro, Calif., USA) was added and the reaction was further incubated for 60 minutes at room temperature. The degree of phosphorylation of GST-ATF2 was measured using a Packard Discovery plate reader (Perkin-Elmer Life Sciences, Pangbourne, UK) as a ratio of specific 665 nm energy transfer signal to reference europium 620 nm signal.
[…] To activate this protein, 3 μM unactivated p38α was incubated in 200 mM Hepes pH7.4, 625 mM NaCl, 1 mM DTT with 27 nM active MKK6 (Upstate), 1 mM ATP and 10 mM MgCl2 The activity of the MKK6-activated p38α was assessed using a time-resolved fluorescence resonance energy transfer (TR-FRET) assay. Biotinylated-GST-ATF2 (residues 19-96, 400 nM final), ATP (125 μM final) and MgCl2 (5 mM final) in assay buffer (40 mM HEPES pH 7.4, 1 mM DTT) were added to wells containing 0.1 μl of various concentrations of compound or DMSO vehicle (1.7% final) in Greiner low volume 384 well black plate. The reaction was initiated by the addition of MKK6-activated p38α (100 pM final) to give a total volume of 6 μl. The reaction was incubated for 120 minutes at room temperature, then terminated by the addition of 3 μl of detection reagent in buffer (100 mM HEPES pH 7.4, 150 mM NaCl, 0.1% w/v BSA, 1 mM DTT, 100 mM EDTA) containing antiphosphothreonine-ATF2-71 polyclonal antibody (Cell Signalling Technology, Beverly Mass., USA) labelled with W-1024 europium chelate (Wallac OY, Turku, Finland), and APC-labelled streptavidin (Prozyme, San Leandro, Calif., USA). The reaction was further incubated for 60 minutes at room temperature. The degree of phosphorylation of GST-ATF2 was measured using a BMG Rubystar plate reader (BMG, UK) as a ratio of specific 665 nm energy transfer signal to reference europium 620 nm signal. It is noted that there are two assay formats shown above for the Time-resolved fluorescence resonance energy transfer kinase assay. The only difference between these two assays is the volume used and the plate type. […] The results described herein may have been performed in either assay format and are not differentiated as to which.
Background: In TR-FRET formats the signal depends on donor and acceptor labels being close together.

The target in data set [2] is T1, Recombinant human p38α. The experiment in a line: Fluorescence anisotropy kinase binding assay (standard or low volume). As to conditions: for active in the assay (pIC50, p38α binding): 12 nM p38α, 5 nM fluorescent ligand; call rule not given here. The essentials: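 Activated GST-tagged recombinant human p38α (pre-activated with MBP-MKK6 DD) at 12 nM final with 5 nM rhodamine green-labelled pyridinylimidazole tracer in pH 7.5 HEPES/CHAPS/DTT/MgCl2 buffer. Test compound 0.28 nM–16.6 μM or 0.02 nM–25 μM final, 3% or 1.7% DMSO; 30–60 min at room temperature. Fluorescence anisotropy read (ex 485/em 535 nm) for Ki.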
For orientation: Polarisation of emitted light reports the rotation of a fluorescent probe.

Data set [3] deals with IL-8 production by human neutrophils. The experiment in a line: TNF-stimulated IL-8 production from human neutrophils. In kind it is cell-based. As to conditions: Neutrophil.
Method: TNF-Stimulated IL-8 Production from Human Neutrophils The effect of test compounds on TNF-stimulated IL8 production by human neutrophils is measured as follows. Neutrophils are prepared from blood obtained from consenting donors, using standard methods. Blood is collected in heparinized syringes and layered over histopaque (30 ml/20 ml). Following centrifugation, the red cell pellet is resuspended in PBS and purified over a dextran gradient. Red blood cells are lysed with water for 40 sec, remaining granulocytes collected by centrifugation and resuspended at 1.5×10̂6 cells/ml. Cells are added (0.5-1 ml) to 48 well plates already containing compound at 1000×final concentration in neat DMSO or 10% DMSO in RPMI1640 with 10% FBS. TNF (final concentration 100 ng/ml) is used as the stimulus. Cells incubated for approximately 20 hrs at 37° C., 5% CO2. Levels of IL-8 in the cell free supernatant are determined by sandwich ELISA, and inhibition relative to a control with DMPO but no compound is calculated.
The test system of the next data set is TNFalpha. Put plainly: LPS-stimulated cytokine production in human whole blood. Format: cell-based. As to conditions: LPS-stimulated TNF-alpha, bound, read-out: IC50.
Setting [4] is: second end given as 'less than', read-out: pIC50, broad range of data upon multiple runs (converted).
The mark [5] stands for this setting: bound, read-out: apparent pIC50 (converted).
The mark [6] stands for this setting: bound, not more than 50% inhibition at 100 nM, read-out: IC50.
Where [7] appears, read: bound, read-out: pIC50 (converted).

Structures can show the parent of a compound that is named as a salt. Where two headings read alike, the source gives them in different places. Some results are limits rather than exact numbers.

The term melting point denotes the temperature of the solid-liquid transition.

T1 sequence (Q16539 whole entry): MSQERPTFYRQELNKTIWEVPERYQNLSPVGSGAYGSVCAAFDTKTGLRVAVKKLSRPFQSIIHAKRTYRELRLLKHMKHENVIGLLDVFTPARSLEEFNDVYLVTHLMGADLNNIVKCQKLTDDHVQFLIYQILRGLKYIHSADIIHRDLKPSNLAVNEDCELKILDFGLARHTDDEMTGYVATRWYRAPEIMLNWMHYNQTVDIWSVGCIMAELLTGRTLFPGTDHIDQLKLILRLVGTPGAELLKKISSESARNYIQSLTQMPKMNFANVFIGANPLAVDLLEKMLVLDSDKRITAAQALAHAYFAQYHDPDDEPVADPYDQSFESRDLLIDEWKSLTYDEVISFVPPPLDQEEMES
Method for TNFalpha: Assay: Test compound concentrations were prepared at 10× concentrations and LPS prepared at 1 ug/ml (final conc. of 50 ng/ml LPS) and added in 50 uL volumes to 1.5 mL eppendorf tubes. Heparinized human whole blood was obtained from healthy volunteers and was dispensed into eppendorf tubes or multiwell plates containing compounds and LPS in 0.2-0.4 mL volumes and the tubes incubated at 37 C. In some studies, compound was incubated with blood for up to 30 min prior to addition of LPS. Following a 4 hour incubation, the tubes or plates were centrifuged to remove cells and plasma was withdrawn and frozen at −80 C. Cytokine measurement: IL-1beta and/or TNFalpha were quantified using a standardized ELISA, or similar technology. Concentrations of IL-1beta or TNFalpha were determined from standard curves of the appropriate cytokine and IC50 values for test compound (concentration that inhibited 50% of LPS-stimulated cytokine production) were calculated by linear regression analysis.

For the compound `Cc1ccc(C(=O)NC2CCC2)cc1-c1nc(N2CCC(N)CC2)nc2c1CNC(=O)N2c1c(F)cccc1F` [1(g), 3-[2-(4-Amino-1-piperidinyl)-8-(2,6-difluorophenyl)-7-oxo-5,6,7,8-tetrahydropyrimido[4,5-d]pyrimidin-4-yl]-N-cyclobutyl-4-methylbenzamide], the IC50 at Recombinant human p38α [1] (setting [4]) is no less than 7.94 nM; in data set [3] (ends given as 'less than' / 'greater than', read-out: IC50, broad range of data upon multiple runs), 40 to 100 nM. Besides, the “active in the assay (pIC50, p38α binding)” value (“active in the assay” below) at Recombinant human p38α [2] is recorded as “active”.

As for `Cc1cc(C(=O)NC(C)C)ccc1-c1nc(NCCN(C)C)nc2c1CNC(=O)N2c1c(F)cccc1F` [104(c), 4-(8-(2,6-difluorophenyl)-2-{[2-(dimethylamino)ethyl]amino}-7-oxo-5,6,7,8-tetrahydropyrimido[4,5-d]pyrimidin-4-yl)-3-methyl-N-(1-methylethyl)benzamide trifluoroacetate], the IC50 was no less than 158 nM at Recombinant human p38α [1] (setting [4]), greater than 15800 nM on Recombinant human p38α [2] (setting [5]) and greater than 100 nM in data set [3] (setting [6]).

With `CNC(=O)c1ccc(C)c(-c2nc(S(C)(=O)=O)nc3c2CNC(=O)N3c2c(F)cccc2F)c1` [163(b), 3-[8-(2,6-difluorophenyl)-2-(methylsulfonyl)-7-oxo-5,6,7,8-tetrahydropyrimido[4,5-d]pyrimidin-4-yl]-N,4-dimethylbenzamide], the IC50 in the data set with TNFalpha is greater than 1000 nM. Also, the “active in the assay” value at Recombinant human p38α [2] is “active”.

As for `CC(C)NC(=O)c1ccc(-c2nc(NCCN(C)C)nc3c2CNC(=O)N3c2c(F)cccc2F)cc1` [Example 97, 4-(8-(2,6-difluorophenyl)-2-{[2-(dimethylamino)ethyl]amino}-7-oxo-5,6,7,8-tetrahydropyrimido[4,5-d]pyrimidin-4-yl)-N-(1-methylethyl)benzamide trifluoroacetate], the IC50 on Recombinant human p38α [1] (setting [4]) was no less than 158 nM; on Recombinant human p38α [2] (setting [5]) it was greater than 15800 nM.

Turning to `CNC(=O)c1ccc(-c2nc(NCCN(C)C)nc3c2CNC(=O)N3c2c(F)cccc2F)cc1` [Example 102, 4-(8-(2,6-difluorophenyl)-2-{[2-(dimethylamino)ethyl]amino}-7-oxo-5,6,7,8-tetrahydropyrimido[4,5-d]pyrimidin-4-yl)-N-methylbenzamide trifluoroacetate], the IC50 is no less than 158 nM on Recombinant human p38α [1] (setting [4]) and greater than 15800 nM on Recombinant human p38α [2] (setting [5]).

Consider `CCCNC(=O)c1ccc(-c2nc(NCCN(C)C)nc3c2CNC(=O)N3c2c(F)cccc2F)c(C)c1` [Example 105, 4-(8-(2,6-difluorophenyl)-2-{[2-(dimethylamino)ethyl]amino}-7-oxo-5,6,7,8-tetrahydropyrimido[4,5-d]pyrimidin-4-yl)-3-methyl-N-propylbenzamide trifluoroacetate], for which the results for the IC50 (at Recombinant human p38α [1] (setting [7]); at Recombinant human p38α [2] (setting [5]); in data set [3] (setting [6])) were greater than 1580 nM, greater than 15800 nM and greater than 100 nM, respectively.

Take `Cc1cc(C(=O)Nc2ccccc2)ccc1-c1nc(NCCN(C)C)nc2c1CNC(=O)N2c1c(F)cccc1F` [Example 106, 4-(8-(2,6-difluorophenyl)-2-{[2-(dimethylamino)ethyl]amino}-7-oxo-5,6,7,8-tetrahydropyrimido[4,5-l]pyrimidin-4-yl)-3-methyl-N-phenylbenzamide trifluoroacetate]: the IC50 at Recombinant human p38α [1] (setting [4]) was no less than 158 nM; at Recombinant human p38α [2] (setting [5]), greater than 15800 nM; in data set [3] (setting [6]), greater than 100 nM.

Consider `Cc1cc(C(=O)Nc2ccc(F)cc2)ccc1-c1nc(NCCN(C)C)nc2c1CNC(=O)N2c1c(F)cccc1F` [Example 107, 4-(8-(2,6-difluorophenyl)-2-{[2-(dimethylamino)ethyl]amino}-7-oxo-5,6,7,8-tetrahydropyrimido[4,5-d]pyrimidin-4-yl)-N-(4-fluorophenyl)-3-methylbenzamide trifluoroacetate], for which the IC50 at Recombinant human p38α [1] (setting [7]) is greater than 1580 nM; on Recombinant human p38α [2] (setting [5]), greater than 15800 nM; in data set [3] (setting [6]) it was greater than 100 nM.

Consider `Cc1ccc(C(=O)NC[C@@H](C)O)cc1-c1nc(NCCN(C)C)nc2c1CNC(=O)N2c1c(F)cccc1F` [Example 128, 3-(8-(2,6-difluorophenyl)-2-{[2-(dimethylamino)ethyl]amino}-7-oxo-5,6,7,8-tetrahydropyrimido[4,5-d]pyrimidin-4-yl)-N-[(2R)-2-hydroxypropyl]-4-methylbenzamide], for which, in the data set with TNFalpha, the IC50 was greater than 1000 nM.

Regarding `Cc1ccc(C(=O)NC[C@H](C)O)cc1-c1nc(NCCN(C)C)nc2c1CNC(=O)N2c1c(F)cccc1F` [Example 129, 3-(8-(2,6-difluorophenyl)-2-{[2-(dimethylamino)ethyl]amino}-7-oxo-5,6,7,8-tetrahydropyrimido[4,5-d]pyrimidin-4-yl)-N-[(2S)-2-hydroxypropyl]-4-methylbenzamide], the IC50 in the data set with TNFalpha was greater than 1000 nM.

Turning to `CCc1ccc(C(=O)O)cc1-c1nc(NCCN(C)C)nc2c1CNC(=O)N2c1c(F)cccc1F` [Example 141, 3-(8-(2,6-difluorophenyl)-2-{[2-(dimethylamino)ethyl]amino}-7-oxo-5,6,7,8-tetrahydropyrimido[4,5-d]pyrimidin-4-yl)-4-ethylbenzoic acid], the IC50 with TNFalpha is greater than 1000 nM; at Recombinant human p38α [2] (setting [4]), no less than 1260 nM.

`CCc1ccc(C(=O)Nc2ccc(F)c(F)c2)cc1-c1nc(NCCN(C)C)nc2c1CNC(=O)N2c1c(F)cccc1F` [Example 143, N-(3,4-difluorophenyl)-3-(8-(2,6-difluorophenyl)-2-{[2-(dimethylamino)-ethyl]amino}-7-oxo-5,6,7,8-tetrahydropyrimido[4,5-d]pyrimidin-4-yl)-4-ethylbenzamide trifluoroacetate]: the IC50 in the data set with TNFalpha is greater than 1000 nM.

On to `CCN(CC)C(=O)c1ccc(C)c(-c2nc(N(C)CCCN(C)C)nc3c2CNC(=O)N3c2c(F)cccc2F)c1` [Example 161, 3-{8-(2,6-difluorophenyl)-2-[[3-(dimethylamino)propyl](methyl)amino]-7-oxo-5,6,7,8-tetrahydropyrimido[4,5-d]pyrimidin-4-yl}-N,N-diethyl-4-methylbenzamide], for which the melting point fell in the range of 106 to 108 °C. In the data set with TNFalpha, the IC50 is greater than 1000 nM. On Recombinant human p38α [2], the “active in the assay” value was “active”.

Consider `CCN(CC)C(=O)c1ccc(C)c(-c2nc(N3CCN(C)CC3)nc3c2CNC(=O)N3c2c(F)cccc2F)c1` [Example 162, 3-[8-(2,6-difluorophenyl)-2-(4-methyl-1-piperazinyl)-7-oxo-5,6,7,8-tetrahydropyrimido[4,5-d]pyrimidin-4-yl]-N,N-diethyl-4-methylbenzamide], for which the melting point is 201 to 205 °C (dec.). In the data set on TNFalpha, the IC50 was greater than 1000 nM. On Recombinant human p38α [2] (setting [4]), the IC50 was no less than 1260 nM.

For `Cc1ccc(C(=O)Nc2cccc(S(N)(=O)=O)c2)cc1-c1nc(NCCN(C)C)nc2c1CNC(=O)N2c1c(F)cccc1F` [Example 226, N-[3-(aminosulfonyl)phenyl]-3-(8-(2,6-difluorophenyl)-2-{[2-(dimethylamino)-ethyl]amino}-7-oxo-5,6,7,8-tetrahydropyrimido[4,5-d]pyrimidin-4-yl)-4-methylbenzamide], the IC50 in the data set on TNFalpha was greater than 1000 nM.
